In the experiment the target is T1, ratOT-R (Rattus norvegicus, UniProt P70536).
T1 construct: expressed in transfected cells; host or cells: HEK/EBNA cells
T1 sequence (P70536 1-388): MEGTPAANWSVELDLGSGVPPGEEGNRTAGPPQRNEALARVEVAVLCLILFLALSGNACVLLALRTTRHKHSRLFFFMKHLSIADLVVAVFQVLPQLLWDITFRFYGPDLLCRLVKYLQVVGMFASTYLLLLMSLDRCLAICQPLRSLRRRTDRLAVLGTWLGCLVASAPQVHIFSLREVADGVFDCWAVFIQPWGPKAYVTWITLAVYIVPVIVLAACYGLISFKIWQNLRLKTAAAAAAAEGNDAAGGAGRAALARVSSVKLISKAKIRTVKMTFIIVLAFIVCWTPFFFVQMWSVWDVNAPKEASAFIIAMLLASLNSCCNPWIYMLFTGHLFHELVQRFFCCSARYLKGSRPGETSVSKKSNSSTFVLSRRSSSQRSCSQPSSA
Description: Inhibition of IP3 (inositol tri-phosphate)-synthesis in HEK/EBNA-OTR cells. In kind it is cell-based. The following applies: [3H]-inositol, oxytocin 10 nM. On the procedure: e) Functional Assay No. 2: Inhibition of IP3 (Inositol Tri-Phosphate)-Synthesis in HEK/EBNA-OTR Cells
This assay intends to show the inhibition of the OT/OT-R mediated IP3 synthesis—being necessary to cause uterine contractions—by using test compounds of formula (I).
Stimulation of the cells: IIEK/EBNA OTR(rat or human) cells were plated out into costar 12-well plates, and equilibrated for 15-24 h with [^3H]-inositol radiolabel in medium without inositol supplement, with 1% FCS (0.5 ml/well). 4 μCi/ml were used. After this, the medium containing the label was aspirated. Then was added DMEM (without FCS, inositol), 20 mM Hepes (4-(2-hydroxyethyl)-1-piperazine-ethane-sulphonic acid), 1 mg/ml BSA containing 10 mM LiCl (freshly prepared), for […] at 37° C. The agonist (i.e. oxytocin used at a concentration of 10 nM) and the antagonists (i.e. the tests compounds of formula (1) used in a concentration of 10 μM, 1 μM, 300 nM, 100 nM, 10 nM, 1 nM, 100 pM, 10 pM, 3 pM) were added for the time required (15-45 min), followed by aspiration of the medium. Due to the […] of the OT receptor, the radiolabeled inositol is phosphorylated to yield IP3, the amount of the radiolabeled IP3 may be determined through the ensuing work-up. The reaction was stopped with 1 ml STOP-solution (i.e. 0.4 M perchloric acid), and let sit for 5-10 min at Room Temperature. Then, 0.8 ml were transferred into tubes containing 0.4 ml of neutralizing solution (0.72 M KOH/0.6M KHCO3), and the tubes vortexed and kept in the cold at least for 2 h.
Separation of IP's: The samples were spun in a table top centrifuge at 3000-4000 rpm for 15 min. 1 ml of the supernatant was transferred to new tubes containing 2.5 ml H2O. Packed resin (0.8 ml) was equilibrated with 20 ml H2O, and the whole samples poured onto the chromatography columns, thus separating the mixture. To discard free inositol, two washes with 10 ml H2O were carried out.
Elution of total IP's: The elution was achieved using 3 ml 1M ammonium formate/0.1M formic acid. The eluant was collected in scintillation counting tubes, followed by addition of 7 ml of scintillation liquid. The amount of IP3 is determined by a scintillating counter.
The activities of the sulfanilide derivatives claimed in the formula I were assessed using the above described in vitro biological assay. The values refer to the capacity of the example compounds according to formula I to effectively antagonize oxytocin-induced IP3-synthesis mediated by the oxytocin receptor.

A word on the IC50: it is the concentration that gives 50% inhibition. High values mean lower potency, low ones higher potency.

On to `CCOc1ccc(S(=O)(=O)N(CC(=O)N/N=C2/C(=O)Nc3ccccc32)c2ccc(C)cc2)cc1` [Example 5, 4-ethoxy-N-(4-methylphenyl)-N-{2-oxo-2-[2-(2-oxo-1,2-dihydro-3H-indol-3-ylidene)hydrazino]ethyl}benzenesulfonamide], for which the IC50 is 13 nM.

Values taken from US7312358B2, “Pharmaceutically active sulfanilide derivatives” (Laboratoires Serono SA, priority 2000, dated 2007).
